Measurements taken from patent US9464326B2, “Total and phosphorylated IL-1 receptor-associated kinase-1 and IL-1 receptor-associated kinase-4 as a biomarker for cancer progression and chemotherapy resistance” (University of Maryland, Baltimore, priority 2012, dated 2016).

Assays:
A375 melanoma cells = test: A375 melanoma xenograft model; details: IRAK-1,-4 inhibitor 35 mg/kg intratumorally, vinblastine 0.25 mg/kg i.p.; control 17 days
Protocol: (A-B) NSG mice (n=5) were injected subcutaneously with A375 melanoma cells. When tumors reached a size of approximately 50 mm^2 mice remained untreated or injected intraperitoneally with vinblastine mg/kg; administered every 2 days for 10 days), or peritumorally with IRAK-1,-4 inhibitor (35 mg/kg), or vinblastine plus IRAK.-1,-4 inhibitor. Tumor sizes were calculated by measuring perpendicular by longitudinal diameter;*, P<0.05. Mouse survival data were analyzed using the exact log-rank test;*, P<0.05, **P<0.001.
NOD.Cg-Prkdc^scid Il2rg^tmWJZ; SzJ IL2RG (NSG) mice (Jackson Laboratories, Bar Harbor, Me.) were subcutaneously (s.c.) injected with 2.5×10^6 A375 melanoma cells delivered in PBS. […] When tumors reached a size of approximately 50 mm^2 mice were injected intratumorally (i.t.) with 35 mg/kg of IRAK-1,-4 inhibitor or an equal volume of vehicle (DMSO). Mice were intraperitoneally (i.p.) injected with vinblastine (0.25 mg/kg) every 2 days for 5 days starting on the same day that mice received with IRAK-1,-4 inhibitor. Tumor sizes were analyzed using a mixed model approach for repeated measurements and mouse survival data were analyzed with the exact log-rank test.

CCRF-CEM cells = test: Western blot of signaling proteins in CCRF-CEM; type: cell-based, human; details: 5 uM, 48 hours, FIG. 3D
Text: (FIG. 3C). […] (FIG. 3D). […] (FIG. 3D).

CCRF-CEM T-ALL cells = test: Antibody (protein) array of apoptosis-related proteins; details: IRAK-1,-4 inhibitor vs DMSO, 72 hours, normalised to GAPDH
Protocol: We also used a protein array from Full Moon Biosystems (Sunnyvale, Calif., USA). For these experiments, purified T-ALL cells were incubated for 48 hours in the presence of IRAK-1,-4 inhibitor (5 μM) or an equal volume of vehicle (DMSO). Then, total protein was extracted, and the levels of various proteins were measured according to the manufacturer's protocol.

HH = test: Proliferation (3H-thymidine) of HH; type: cell-based, human; details: 3H-thymidine uptake, 72 h
Text: (§1) CCRF-CEM, CEM/C1, CEM/C2, CEM-C7, Jurkat, Loucy, Molt-4, HSB-2, SUP-T1, Hut 78, HH, Hut 102, MO, and H9 T-leukemia and T-lymphoma cell lines were purchased from the American Type Culture Collection (Manassas, Va., USA). All of the cell lines were initially expanded and cryopreserved within one month of receipt. Cells were typically used for 6 months at which time a fresh vial of cryopreserved cells was used. Total T cells from healthy donors were isolated via negative selection followed by positive selection using a CD3+ selection kit (Invitrogen, Carlsbad, Calif.). T cells were isolated from patients with T-ALL bone marrow or peripheral blood samples containing more than 70% leukemia cells using a CD2+ isolation kit (STEMCELL Technologies, Vancouver, Canada). All tissues were collected under institutional IRB-approved protocols and all participants gave written informed assent/consent. For in vitro experiments, T-ALL cells were cultured in AIM-V medium supplemented with 20% human AB serum in the presence of recombinant human stem cell factor (50 ng/mL; Amgen, Thousand Oaks, Calif.), insulin (20 nM; Sigma-Aldrich, St Louis, Mo., USA) and IL-7 (50 ng/mL; R&D Systems, Minneapolis, Minn., USA). […]
(§2) Cells were cultured in a 96-well plate (Corning Costar, Corning, N.Y., USA) with various concentrations of TLR ligands 1-9, starting at 10 μg/ml, in a final volume of 200 ul. […] After this time point, cells were harvested with a Packard Filter-Mate-96 cell harvester (Perkin Elmer, Waltham, Mass., USA) and counted on Packard Top Count-NXT (Perkin Elmer, Waltham, Mass., USA). Results were expressed as average counts per minute (cpm). […] Forty-eight hours later, proliferation (±SD) was determined by ^3H-thymidine incorporation. Alternatively, apoptosis was measured by flow cytometry after staining cells with Annexin-V (BD Pharmingen, San Diego, Calif., USA) and propidium iodide (Sigma). Cell number was counted under microscopy by staining cells with trypan blue. […]

MO = test: Proliferation (3H-thymidine) of MO; type: cell-based, human; details: 3H-thymidine uptake, 72 h
Text: as §1, §2

O=C(Nc1nc2ccccc2n1CCN1CCOCC1)c1cccc([N+](=O)[O-])c1 [IRAK-1,-4 inhibitor]
median survival (A375 melanoma cells): 19 days | decrease of phosphorylated-p65 levels (CCRF-CEM cells): four-fold | p-ERK1/2 levels (CCRF-CEM cells): did not alter | reduction of p-AKT expression levels (CCRF-CEM cells): five-fold | reduction of p-mTOR expression levels (CCRF-CEM cells): approximately six-fold | Fold Change: AFX(Ab-197) (CCRF-CEM T-ALL cells): −2.62 fold | Fold Change: AFX(Phospho-Ser 97) (CCRF-CEM T-ALL cells): −2.03 fold | Fold Change: BAD(Ab-112) (CCRF-CEM T-ALL cells): −1.76 fold | Fold Change: BAD(Phospho-Ser112) (CCRF-CEM T-ALL cells): −2.44 fold | Fold Change: BCL-XL(Phospho-Ser62) (CCRF-CEM T-ALL cells): −2.42 fold | Fold Change: CDC2(Phospho-Tyr15) (CCRF-CEM T-ALL cells): −2.33 fold | Fold Change: FKHR(Ab-319) (CCRF-CEM T-ALL cells): −2.54 fold | Fold Change: FKHRL1(Ab-253) (CCRF-CEM T-ALL cells): −2.36 fold | Fold Change: FKHRL1(Phospho-Ser253) (CCRF-CEM T-ALL cells): −2.53 fold | Fold Change: GSK3 alpha(Phospho-Ser21) (CCRF-CEM T-ALL cells): −2.13 fold | Fold Change: HSP27(Phospho-Ser15) (CCRF-CEM T-ALL cells): −2.20 fold | Fold Change: IKB-alpha(Ab-32/36) (CCRF-CEM T-ALL cells): −1.96 fold | Fold Change: IKB-alpha(Phospho-Ser32/Phospho-Ser36) (CCRF-CEM T-ALL cells): −2.95 fold | Fold Change: IRS-1(Phospho-Ser639) (CCRF-CEM T-ALL cells): −2.37 fold | Fold Change: JAK2(Phospho-Tyr221) (CCRF-CEM T-ALL cells): −2.05 fold | Fold Change: NFKB-p65(Ab-435) (CCRF-CEM T-ALL cells): −1.39 fold | Fold Change: NFKB-p65(Phospho-Thr435) (CCRF-CEM T-ALL cells): −2.39 fold | Fold Change: NFKB-p100/p52(Phospho-Ser869) (CCRF-CEM T-ALL cells): −2.50 fold | Fold Change: NFKB-p105/p50(Phospho-Ser337) (CCRF-CEM T-ALL cells): −4.06 fold | Fold Change: PTEN(Phospho-Ser380) (CCRF-CEM T-ALL cells): 1.35 fold | Fold Change: Raf1(Phospho-Ser338) (CCRF-CEM T-ALL cells): −2.46 fold | Fold Change: STAT1(Phospho-Ser727) (CCRF-CEM T-ALL cells): −2.17 fold | Fold Change: STAT3(Phospho-Ser727) (CCRF-CEM T-ALL cells): −2.11 fold | Fold Change: p44/42 MAP Kinase(Phospho-Tyr204) (CCRF-CEM T-ALL cells): −2.24 fold | Fold Change: p53(Ab-46) (CCRF-CEM T-ALL cells): −1.39 fold | Fold Change: p53(Phospho-Ser46) (CCRF-CEM T-ALL cells): −2.27 fold

tripalmitoyl-S-(bis(palmitoyloxy)propyl)-Cys-Ser-(Lys)3-Lys [Pam3Cysk4]
Proliferative effects of TLR ligands (HH): ∘ | Proliferative effects of TLR ligands (MO): ∘
